Test results reported in patent publication US10155021B2, “Antimicrobial 4-oxoquinolizines” (Emergent Product Development Gaithersburg Inc., priority 2011, dated 2018).
In brackets after ≈: the same amount, converted by molar mass.

Experiments:
[1] = tested on: S. pneumoniae 49619; experiment: MIC, panel of quinolone-resistant strains (CLSI); assay type: cell-based; conditions: Streptococcus pneumoniae, LEV S
[2] = tested on: E. faecalis 29212; experiment: MIC, standard panel of Gram-positive and Gram-negative bacteria (CLSI); assay type: cell-based, Enterococcus faecalis; conditions: Enterococcus faecalis, 29212; CAMHB; read-out: MIC E. faecalis 29212
[3] = tested on: GN10 Pseudomonas aeruginosa; experiment: Pre-chequerboard MIC, broth microdilution (Example 6); assay type: cell-based; conditions: ATCC 27853 / GN10, ATCC 27853, antibiotic susceptible
Text: (§1) A chequerboard technique was used to identify possible synergistic or antagonistic interactions between the 4-oxoquinolizines compounds, levofloxacin and polymyxin B. Levofloxacin was included as a control. […] Final dilutions were made in Mueller-Hinton broth, the specific test medium used for MIC determinations according to CLSI guidelines (CLSI. Methods for Dilution Antimicrobial Susceptibility Tests for Bacteria That Grow Aerobically; Approved Standard-Eighth Edition (2009). CLSI Document M07-A8. CLSI, Wayne, Pa. 19087-1898, USA.). The test medium used was a cation-adjusted Mueller-Hinton Broth II (Becton Dickinson UK Ltd., Oxford Science Park, Oxford, UK, OX4 4DQ).
(§2) The compounds 2, 33 and 35, as well as levofloxacin were tested in combination with polymyxin B on the following isolates: GN31 Acinetobacter baumannii—antibiotic susceptible clinical isolate, GN52 Acinetobacter baumannii—levofloxacin resistant clinical isolate, GN56 Acinetobacter baumannii—levofloxacin resistant clinical isolate, GN48 Klebsiella pneumoniae—NCTC 13443—NDM-1-metallo-R-lactamase and GN10 Pseudomonas aeruginosa—ATCC 27853—antibiotic susceptible reference isolate. All isolates are from the collection maintained at Quotient Bioresearch Ltd., Cambridge, UK.
(§3) The MIC values for the compounds and polymyxin B and levofloxacin were determined by broth microdilution following CLSI guidelines, and the MICs of agents in combination were determined as described by Pillai et.al (Pillai S K, Moellering R C Jr, Eliopoulis G M; Antimicrobial Combinations in Antibiotics in Laboratory Medicine 5th Edition (V. Lorian Ed) (2005) p 365-440). Initial MIC results were used to determine the microtiter plate patterns for the chequerboards. A suitable doubling dilution concentration range was selected such that the combination antibiotic range was at least two concentrations above and four concentrations below the MIC for each isolate. A fixed range of 0.008 to 8 mg/L was tested for polymyxin B except in the case of A. baumannii GN31 where a range of 0.004 to 4 mg/L was tested when in combination with the compounds 2, 33 and 35 as well as levofloxacin.

[4] = tested on: GN48 Klebsiella pneumoniae; experiment: as above; assay type: cell-based; conditions: GN48 / NCTC 13443, NCTC 13443, NDM-1
Text: as §1, §2, §3

[5] = tested on: GN52 Acinetobacter baumannii; experiment: as above; assay type: cell-based; conditions: levofloxacin resistant clinical isolate
Text: as §1, §2, §3

[6] = tested on: GN48 Klebsiella pneumoniae; experiment: Chequerboard synergy with polymyxin B (FICI); assay type: cell-based; conditions: combination with polymyxin B
Text: as §1, §2, §3
(§4) From the raw data, fractional inhibitory concentration indices (FICI) were determined for the compounds of the invention and levofloxacin together with polymyxin B for each isolate as follows: FICI=FICX+FICY Where,
(§5) FICX=concentration of the combination antibiotic in a particular row÷MIC of the combination drug alone
(§6) FICY=MIC of polymyxin B in combination÷MIC of the polymyxin B alone
(§7) Additionally isobolograms were created to represent the same data visually. Here, the MIC of polymyxin B was plotted against every concentration of the combination antibiotic up to the MIC.

[7] = tested on: S. aureus 101; experiment: MIC, standard panel of Gram-positive and Gram-negative bacteria (CLSI); assay type: cell-based, Staphylococcus aureus; conditions: Staphylococcus aureus, 101; CAMHB; read-out: MIC S. aureus 101
[8] = tested on: E. faecium 19434; experiment: as above; assay type: cell-based, Enterococcus faecium; conditions: Enterococcus faecium, 19434; CAMHB; read-out: MIC E. faecium 19434
[9] = tested on: B. thailandensis E264; experiment: microbe, parasite or virus in culture; assay type: cell-based, Burkholderia thailandensis; conditions: Burkholderia thailandensis, E264, read-out: MIC B. thailandensis E264
[10] = tested on: E. coli ATCC 25922; experiment: MIC, selected panel of Gram-positive and Gram-negative strains (Example 5); assay type: cell-based, Escherichia coli; conditions: Escherichia coli, ATCC25922; read-out: MIC E. coli ATCC 25922
[11] = tested on: P. aeruginosa ATCC 27853; experiment: as above; assay type: cell-based; conditions: Pseudomonas aeruginosa, ATCC27853; read-out: MIC P. aeruginosa ATCC 27853
[12] = tested on: S. aureus ATCC 25923; experiment: as above; assay type: cell-based; conditions: Staphylococcus aureus, ATCC25923; read-out: MIC S. aureus ATCC 25923
[13] = tested on: S. aureus ATCC 43300 (MRSA, FQ-S); experiment: as above; assay type: cell-based, Staphylococcus aureus; conditions: Staphylococcus aureus; read-out: MIC S. aureus ATCC 43300 (MRSA, FQ-S)
[14] = tested on: S. aureus BAA-1556 (USA300-Type MRSA, FQ-R); experiment: as above; assay type: cell-based, Staphylococcus aureus; conditions: Staphylococcus aureus; read-out: MIC S. aureus BAA-1556 (USA300-Type MRSA, FQ-R)
[15] = tested on: E. cloacae 13047; experiment: MIC, standard panel of Gram-positive and Gram-negative bacteria (CLSI); assay type: cell-based, Enterobacter cloacae; conditions: Enterobacter cloacae, 13047; CAMHB; read-out: MIC E. cloacae 13047
[16] = tested on: B. anthracis; experiment: microbe, parasite or virus in culture; assay type: cell-based; conditions: Bacillus anthracis, read-out: MIC B. anthracis
[17] = tested on: F. tularensis; experiment: microbe, parasite or virus in culture; assay type: cell-based; conditions: Francisella tularensis, read-out: MIC F. tularensis
[18] = tested on: B. abortus; experiment: microbe, parasite or virus in culture; assay type: cell-based; conditions: Brucella abortus, read-out: MIC B. abortus
[19] = tested on: B. pseudomallei; experiment: microbe, parasite or virus in culture; assay type: cell-based; conditions: Burkholderia pseudomallei, read-out: MIC B. pseudomallei
[20] = tested on: A. baumannii ATCC 19606; experiment: MIC, selected panel of Gram-positive and Gram-negative strains (Example 5); assay type: cell-based, Acinetobacter baumannii; conditions: Acinetobacter baumannii, ATCC19606; read-out: MIC A. baumannii ATCC 19606
[21] = tested on: GN31 Acinetobacter baumannii; experiment: Pre-chequerboard MIC, broth microdilution (Example 6); assay type: cell-based; conditions: antibiotic susceptible clinical isolate
Text: as §1, §2, §3

[22] = tested on: GN56 Acinetobacter baumannii; experiment: as above; assay type: cell-based; conditions: levofloxacin resistant clinical isolate
Text: as §1, §2, §3

[23] = tested on: GN10 Pseudomonas aeruginosa; experiment: Chequerboard synergy with polymyxin B (FICI); assay type: cell-based; conditions: combination with polymyxin B
Text: as §1, §2, §3, §4, §5, §6, §7

| SMILES | MIC [1] | MIC [3] | MIC [4] | MIC [7] | MIC [8] | MIC [9] | MIC [10] | MIC [11] | MIC [13] | MIC [14] | also measured |
| --- | --- | --- | --- | --- | --- | --- | --- | --- | --- | --- | --- |
| Cc1c(-c2ccc(N)cc2)ccn2c(=O)c(C(=O)O)cc(C3CC3)c12 [Compound 8, 8-(4-amino-phenyl)-1-cyclopropyl-9-methyl-4-oxo-quinolizine-3-carboxylic acid] | < 0.03 µg/mL |  |  |  |  |  |  |  |  |  |  |
| Cc1c(-c2cc(F)c(N)cc2F)ccn2c(=O)c(C(=O)O)cc(C3CC3)c12 [Compound 2, 8-(3,6-difluoro-4-amino-phenyl)-1-cyclopropyl-9-methyl-4-oxo-quinolizine-3-carboxylic acid] | < 0.03 µg/mL | 1 µg/mL | 32 µg/mL |  |  |  |  |  |  |  | MIC [2]: < 0.008 µg/mL; MIC [5]: 8 µg/mL; Synergy [6]: partial synergy |
| Cc1c(-c2ccc(CN)c(F)c2)ccn2c(=O)c(C(=O)O)cc(C3CC3)c12 [Compound 4, 8-(3-fluoro-4-aminomethyl-phenyl)-1-cyclopropyl-9-methyl-4-oxo-quinolizine-3-carboxylic acid] |  |  |  | 4 µg/mL (≈ 10.9 µM) | 2 µg/mL (≈ 5.46 µM) | 1 µg/mL (≈ 2.73 µM) | 0.016 µg/mL (≈ 0.0437 µM) | 1 µg/mL (≈ 2.73 µM) | 0.032 to 0.064 µg/mL (≈ 0.0873 to 0.175 µM) | 0.5 µg/mL (≈ 1.36 µM) | MIC [12]: 0.064 µg/mL (≈ 0.175 µM) |
| Cc1c(-c2ccc(N)cc2)c(F)cn2c(=O)c(C(=O)O)cc(C3CC3)c12 [Compound 7, 8-(4-amino-phenyl)-1-cyclopropyl-7-fluoro-9-methyl-4-oxo-quinolizine-3-carboxylic acid] |  |  |  | 1 µg/mL (≈ 2.84 µM) | 2 µg/mL (≈ 5.68 µM) |  |  |  |  |  | MIC [15]: 1 µg/mL (≈ 2.84 µM) |
| Cc1c(-c2ccc(N)c(F)c2)ccn2c(=O)c(C(=O)O)cc(C3CC3)c12 [Compound 1, 8-(3-fluoro-4-amino-phenyl)-1-cyclopropyl-9-methyl-4-oxo-quinolizine-3-carboxylic acid] |  |  |  |  |  |  |  |  |  |  | MIC [16]: < 0.008 µg/mL; MIC [17]: < 0.03 µg/mL; MIC [18]: 0.125 µg/mL (≈ 0.355 µM); MIC [19]: 0.125 µg/mL (≈ 0.355 µM) |
| C[C@H]1COc2c(N3CCN(C)CC3)c(F)cc3c(=O)c(C(=O)O)cn1c23 [Levofloxacin, reference compound] |  | 1 µg/mL | 64 µg/mL |  |  | 4 µg/mL (≈ 11.1 µM) | 0.016 µg/mL (≈ 0.0443 µM) | 1 µg/mL (≈ 2.77 µM) | 0.25 µg/mL (≈ 0.692 µM) | 8 µg/mL (≈ 22.1 µM) | MIC [20]: 0.5 µg/mL (≈ 1.38 µM); MIC [21]: 0.12 µg/mL; MIC [22]: 32 µg/mL; Interaction with polymyxin B, P. aeruginosa GN10 [23]: No interaction |
